In patent US9890171B2, “Aldosterone synthase inhibitors” (Boehringer Ingelheim International GmbH, priority 2014, dated 2018) one finds IC50 data, which are given here for 32 compounds.

The structures appear in SMILES notation.

aldosterone synthase (CYP11B2), sequence (A0A2K5UPL9 1-503): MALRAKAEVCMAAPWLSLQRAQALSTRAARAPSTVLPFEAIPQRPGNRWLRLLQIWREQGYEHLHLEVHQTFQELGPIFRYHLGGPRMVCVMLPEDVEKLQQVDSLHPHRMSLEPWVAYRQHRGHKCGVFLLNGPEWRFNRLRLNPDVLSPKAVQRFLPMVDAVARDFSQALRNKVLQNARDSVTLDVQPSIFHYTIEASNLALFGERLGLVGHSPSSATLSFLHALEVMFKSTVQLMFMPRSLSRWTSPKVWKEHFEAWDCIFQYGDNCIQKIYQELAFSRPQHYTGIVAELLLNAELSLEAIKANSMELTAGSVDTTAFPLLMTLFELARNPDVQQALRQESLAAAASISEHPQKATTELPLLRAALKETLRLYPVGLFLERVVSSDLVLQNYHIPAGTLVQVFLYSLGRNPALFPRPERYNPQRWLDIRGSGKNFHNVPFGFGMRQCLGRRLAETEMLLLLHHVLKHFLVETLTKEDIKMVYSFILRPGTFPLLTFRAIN

The assay concerns the target aldosterone synthase (CYP11B2) (Macaca fascicularis, UniProt A0A2K5UPL9). As to the kind of experiment: aldosterone synthase inhibition assay. The assay is classed as biochemical, cynomolgus monkey. Particulars: cynomolgus adrenal gland mitochondria, 2 μM corticosterone, aldosterone quantified by mass spectrometry. The procedure: The aldosterone synthase inhibition assay employs cynomolgus adrenal gland mitochondria as the source of aldosterone synthase (CYP11B2). Mitochondria are prepared from frozen cynomolgus monkey adrenal glands according to Method A described in by J. D. McGarry et al. (Biochem. J., 1983, 214, 21-28), with a final resuspension in the AT buffer described in R. Yamaguchi et al. (Cell Death and Differentiation, 2007, 14, 616-624), frozen as aliquots in liquid nitrogen and stored at −80° C. until use.
Assays are performed in 96-well format in a final volume of 60 μL/well, containing 100 mM potassium phosphate, pH 7.4, 1% (v/v) DMSO, and additionally, 2 μM of corticosterone and […] of mitochondrial protein. Reactions are started by the addition of NADPH to 1 mM and allowed to proceed for 60-90 minutes at 37° C. Reactions are terminated by the addition of […]. One hundred microliters are then transferred to a glass filter plate and centrifuged at 570×g for 5 minutes and the filtrate is collected. Reaction product aldosterone is quantified by mass spectrometry. To determine the assay blank value (0% activity), NADPH is omitted from some reactions.
Dose dependent inhibition is quantified by the inclusion of compound at various concentrations. Maximum activity (100%) is defined by reactions containing NADPH, but without compound. Activities at each concentration are expressed as a percentage of the maximum activity (y-axis) and plotted against concentration of compound (x-axis) and the concentration corresponding to 50% activity (IC50) determined using the XLFit curve-fitting program using a 4-parameter logistic model.
`CCC(=O)NC1COCc2c(-c3ccc4c(c3)COCC4(F)F)cncc21` (single isomer, unassigned) [Compound 194, N-[8-(4,4-Difluoro-isochroman-7-yl)-3,4-dihydro-1H-pyrano[4,3-c]pyridin-4-yl]-propionamide] displayed an IC50 of 38 nM.

In the case of `OC1COCc2c(-c3ccc4cn[nH]c4c3)cncc21` (single isomer, unassigned) [Compound 24, 8-(1H-Indazol-6-yl)-3,4-dihydro-1H-pyrano[4,3-c]pyridin-4-ol], inhibition was half-maximal at 480 nM (IC50).

For the compound `OC1COCc2c(-c3ccc4scnc4c3)cncc21` (single isomer, unassigned) [Compound 33, 8-Benzothiazol-5-yl-3,4-dihydro-1H-pyrano[4,3-c]pyridin-4-ol], the IC50 worked out at 40.5 nM.

Take `CC(=O)NC1COCc2c(-c3ccc4oc(=O)ccc4c3)cncc21` (single isomer, unassigned) [Compound 154, N-[8-(2-Oxo-2H-chromen-6-yl)-3,4-dihydro-1H-pyrano[4,3-c]pyridin-4-yl]-acetamide]: the IC50 amounted to 26.3 nM.

The compound `OC1COCc2cncc(-c3ccc4cnccc4c3)c21` (single isomer, unassigned) [Compound 167, 5-Isoquinolin-6-yl-3,4-dihydro-1H-pyrano[3,4-c]pyridin-4-ol] displayed an IC50 of 156 nM.

The compound `Cn1ncc2ccc(-c3cncc4c3C(O)COC4)cc21` (single isomer, unassigned) [Compound 165, 5-(1-Methyl-1H-indazol-6-yl)-3,4-dihydro-1H-pyrano[3,4-c]pyridin-4-ol] displayed an IC50 of 224 nM.

The compound `Cn1ncc2c(F)cc(-c3cncc4c3COCC4N)cc21` (single isomer, unassigned) [Compound 149, 8-(4-Fluoro-1-methyl-1H-indazol-6-yl)-3,4-dihydro-1H-pyrano[4,3-c]pyridin-4-ylamine] showed an IC50 of 17.3 nM.

Consider `O=c1ccoc2cc(-c3cncc4c3COCC4O)ccc12` (single isomer, unassigned) [Compound 110, 7-(4-Hydroxy-3,4-dihydro-1H-pyrano[4,3-c]pyridin-8-yl)-chromen-4-one], for which 13 nM corresponded to half-maximal inhibition (IC50).

For `Cn1nc(C#N)c2ccc(-c3cncc4c3COCC4(C)O)cc21` (single isomer, unassigned) [Compound 177, 6-(4-Hydroxy-4-methyl-3,4-dihydro-1H-pyrano[4,3-c]pyridin-8-yl)-1-methyl-1H-indazole-3-carbonitrile], inhibition was half-maximal at 42.8 nM (IC50).

For the compound `CN1C(=O)Cc2cc(-c3cncc4c3COCC4O)ccc21` (single isomer, unassigned) [Compound 54, 5-(4-Hydroxy-3,4-dihydro-1H-pyrano[4,3-c]pyridin-8-yl)-1-methyl-1,3-dihydro-indol-2-one], the IC50 was 149 nM.

For `NC(=O)N1CCCc2cc(-c3cncc4c3COCC4O)cnc21` (single isomer, unassigned) [Compound 164, 6-(4-Hydroxy-3,4-dihydro-1H-pyrano[4,3-c]pyridin-8-yl)-3,4-dihydro-2H-[1,8]naphthyridine-1-carboxylic acid amide], 41.5 nM corresponded to half-maximal inhibition (IC50).

`CCS(=O)(=O)NC1COCc2c(-c3ccc4c(c3)CC(=O)N4C)cncc21` (single isomer, unassigned) [Compound 63, Ethanesulfonic acid [8-(1-methyl-2-oxo-2,3-dihydro-1H-indol-5-yl)-3,4-dihydro-1H-pyrano[4,3-c]pyridin-4-yl]-amide] gave an IC50 of 85.2 nM.

Take `Cn1ncc2ccc(-c3cncc4c3COCC4NC(=O)C3CC3)cc21` (single isomer, unassigned) [Compound 75, Cyclopropanecarboxylic acid [8-(1-methyl-1H-indazol-6-yl)-3,4-dihydro-1H-pyrano[4,3-c]pyridin-4-yl]-amide]: 26.4 nM corresponded to half-maximal inhibition (IC50).

As to `OC1COCc2c(-c3ccccc3)cncc21` (single isomer, unassigned) [Compound 3, 8-Phenyl-3,4-dihydro-1H-pyrano[4,3-c]pyridin-4-ol], the IC50 is 484 nM.

Consider `Cc1nnc2ccc(-c3cncc4c3COCC4O)cn12` (single isomer, unassigned) [Compound 95, 8-(3-Methyl-[1,2,4]triazolo[4,3-a]pyridin-6-yl)-3,4-dihydro-1H-pyrano[4,3-c]pyridin-4-ol], for which the midpoint of inhibition, the IC50, lay at 766 nM.

Compound `Cc1ncc2ccc(-c3cncc4c3COC3(CC3)C4O)cn12` (single isomer, unassigned) [Compound 88, 8-(3-methylimidazo[1,5-a]pyridin-6-yl)spiro[1,4-dihydropyrano[4,3-c]pyridine-3,1′-cyclopropane]-4-ol] registered an IC50 of 128 nM.

`OC1COCc2c(-c3ccc4cc[nH]c4c3)cncc21` (single isomer, unassigned) [Compound 34, 8-(1H-Indol-6-yl)-3,4-dihydro-1H-pyrano[4,3-c]pyridin-4-ol] showed a half-maximal inhibitory concentration (IC50) of 17.3 nM.

Compound `CCC(=O)NC1COCc2c(-c3ccc4c(Cl)n[nH]c4c3)cncc21` (single isomer, unassigned) [Compound 128, N-[8-(3-Chloro-1H-indazol-6-yl)-3,4-dihydro-1H-pyrano[4,3-c]pyridin-4-yl]-propionamide] gave an IC50 of 11.2 nM.

Turning to `O=C1CCCc2ccc(-c3cncc4c3COCC4O)cc21` (single isomer, unassigned) [Compound 116, 7-(4-Hydroxy-3,4-dihydro-1H-pyrano[4,3-c]pyridin-8-yl)-3,4-dihydro-2H-naphthalen-1-one], half-maximal inhibition (IC50) required 26.3 nM.

In turn, `CCC(=O)NC1COCc2c(-c3ccc4c(cnn4C)c3)cncc21` (single isomer, unassigned) [Compound 73, N-[8-(1-Methyl-1H-indazol-5-yl)-3,4-dihydro-1H-pyrano[4,3-c]pyridin-4-yl]-propionamide] came in with an IC50 of 34.6 nM.

Compound `OC1COCc2c(-c3ccc4nncn4c3)cncc21` (single isomer, unassigned) [Compound 100, 8-[1,2,4]Triazolo[4,3-a]pyridin-6-yl-3,4-dihydro-1H-pyrano[4,3-c]pyridin-4-ol] showed an IC50 of 2300 nM.

`Cn1cc2ccc(-c3cncc4c3COCC4O)cc2n1` (single isomer, unassigned) [Compound 50, 8-(2-Methyl-2H-indazol-6-yl)-3,4-dihydro-1H-pyrano[4,3-c]pyridin-4-ol]: the IC50 was determined as 1200 nM.

For `CCC(=O)NC1COCc2c(-c3ccc4c(c3)CC(=O)N4C)cncc21` (single isomer, unassigned) [Compound 58, N-[8-(1-Methyl-2-oxo-2,3-dihydro-1H-indol-5-yl)-3,4-dihydro-1H-pyrano[4,3-c]pyridin-4-yl]-propionamide], inhibition was half-maximal at 130 nM (IC50).

Consider `Cn1nc(F)c2ccc(-c3cncc4c3COCC4O)cc21` (single isomer, unassigned) [Compound 15, 8-(3-Fluoro-1-methyl-1H-indazol-6-yl)-3,4-dihydro-1H-pyrano[4,3-c]pyridin-4-ol], for which inhibition was half-maximal at 7.8 nM (IC50).

In turn, `OC1COCc2c(-c3ccc4ncccc4c3)cncc21` (single isomer, unassigned) [Compound 22, 8-Quinolin-6-yl-3,4-dihydro-1H-pyrano[4,3-c]pyridin-4-ol] came in with an IC50 of 64.1 nM.

Compound `OC1COCc2c(-c3ccc4c(c3)C(F)(F)CCO4)cncc21` (single isomer, unassigned) [Compound 142, 8-(4,4-Difluoro-chroman-6-yl)-3,4-dihydro-1H-pyrano[4,3-c]pyridin-4-ol] showed an IC50 of 118 nM.

For the compound `Cn1ncc2c1CC(c1cncc3c1COCC3O)CC2` (single isomer, unassigned) [Compound 190, 8-(1-Methyl-4,5,6,7-tetrahydro-1H-indazol-6-yl)-3,4-dihydro-1H-pyrano[4,3-c]pyridin-4-ol], the IC50 is 340 nM.

Take `Cc1nnc2ccc(-c3cncc4c3COC3(CC3)C4O)cn12` (single isomer, unassigned) [Compound 93, 8-(3-methyl-[1,2,4]triazolo[4,3-a]pyridin-6-yl)spiro[1,4-dihydropyrano[4,3-c]pyridine-3,1′-cyclopropane]-4-ol]: the IC50 turned out to be 271 nM.

`Cc1nn(C)c(C)c1-c1cncc2c1COCC2O` (single isomer, unassigned) [Compound 26, 8-(1,3,5-Trimethyl-1H-pyrazol-4-yl)-3,4-dihydro-1H-pyrano[4,3-c]pyridin-4-ol] came in with an IC50 of 1500 nM.

With `Cn1ncc2c(F)cc(-c3cncc4c3COCC4O)cc21` (single isomer, unassigned) [Compound 96, 8-(4-Fluoro-1-methyl-1H-indazol-6-yl)-3,4-dihydro-1H-pyrano[4,3-c]pyridin-4-ol], the IC50 was 8.1 nM.

In turn, `O=C1NCCc2cc(-c3cncc4c3COCC4O)ccc21` (single isomer, unassigned) [Compound 121, 6-(4-Hydroxy-3,4-dihydro-1H-pyrano[4,3-c]pyridin-8-yl)-3,4-dihydro-2H-isoquinolin-1-one] came in with an IC50 of 95 nM.

With `CCS(=O)(=O)NC1COCc2c(-c3ccc4ncn(C)c4c3)cncc21` (single isomer, unassigned) [Compound 67, Ethanesulfonic acid [8-(3-methyl-3H-benzoimidazol-5-yl)-3,4-dihydro-1H-pyrano[4,3-c]pyridin-4-yl]-amide], it took 110 nM to reach half-maximal inhibition (IC50).

By IC50 is commonly meant the concentration needed to halve the response being measured. High values mean lower potency, low ones higher potency.
